Reference: PubChem BioAssay AID248 (DTP/NCI, 2004)
Values joined by “and” are separate entries in the source; they are usually repeats but may differ in a detail not shown here. Identical values can stand only once. Inconclusive results and toxic doses are left out. Cut-off read from the data, not from the text of the source: active = T/C of 150% or more; inactive = T/C below 125%.

Test system: L1210 leukemia ip in BDF1 mice, survival T/C
Experiment: NCI In Vivo Anticancer Drug Screen. Data for tumor model L1210 Leukemia (intraperitoneal) in B6D2F1 (BDF1) mice
Settings: higher = longer survival
Summary of the method: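 Transplantable tumor model; survival measured in treated vs vehicle control mice. Value = treated/control.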

[1] = endpoint: mean survival time, dose: 50.0 mg/kg/injection, schedule: Q01DX009 (ip), vehicle: saline with Tween-80
[2] = endpoint: mean survival time, dose: 100.0 mg/kg/injection, schedule: Q01DX001 (ip), vehicle: other
[3] = endpoint: mean survival time, dose: 100.0 mg/kg/injection, schedule: Q01DX009 (ip), vehicle: saline with Tween-80
[4] = endpoint: mean survival time, dose: 200.0 mg/kg/injection, schedule: Q01DX009 (ip), vehicle: saline with Tween-80
[5] = endpoint: mean survival time, dose: 50.0 mg/kg/injection, schedule: Q01DX001 (ip), vehicle: saline
[6] = endpoint: mean survival time, dose: 100.0 mg/kg/injection, schedule: Q01DX001 (ip), vehicle: saline
[7] = endpoint: mean survival time, dose: 200.0 mg/kg/injection, schedule: Q01DX001 (ip), vehicle: saline
[8] = endpoint: mean survival time, dose: 400.0 mg/kg/injection, schedule: Q01DX001 (ip), vehicle: saline
[9] = endpoint: mean survival time, dose: 25.0 mg/kg/injection, schedule: Q01DX009 (ip), vehicle: saline with Tween-80
[10] = endpoint: mean survival time, dose: 100.0 mg/kg/injection, schedule: Q04DX003 (ip), vehicle: saline with Tween-80
[11] = endpoint: mean survival time, dose: 200.0 mg/kg/injection, schedule: Q04DX003 (ip), vehicle: saline with Tween-80
[12] = endpoint: mean survival time, dose: 400.0 mg/kg/injection, schedule: Q04DX003 (ip), vehicle: saline with Tween-80
[13] = endpoint: mean survival time, dose: 100.0 mg/kg/injection, schedule: Q01DX001 (ip), vehicle: carboxymethylcellulose (CMC)
[14] = endpoint: mean survival time, dose: 200.0 mg/kg/injection, schedule: Q01DX001 (ip), vehicle: carboxymethylcellulose (CMC)
[15] = endpoint: mean survival time, dose: 400.0 mg/kg/injection, schedule: Q01DX001 (ip), vehicle: carboxymethylcellulose (CMC)
[16] = endpoint: mean survival time, dose: 50.0 mg/kg/injection, schedule: Q01DX001 (ip), vehicle: carboxymethylcellulose (CMC)
[17] = endpoint: mean survival time, dose: 25.0 mg/kg/injection, schedule: Q01DX009 (ip), vehicle: saline
[18] = endpoint: mean survival time, dose: 50.0 mg/kg/injection, schedule: Q01DX009 (ip), vehicle: saline

Measured: T/C

CCOC(=O)C1Oc2ccc(Cl)cc2C1=O (centres undefined)
inactive: endpoint: mean survival time, dose: 100.0 mg/kg/injection, schedule: Q04DX002 (ip), vehicle: gum acacia 97 % of control | endpoint: mean survival time, dose: 200.0 mg/kg/injection, schedule: Q04DX002 (ip), vehicle: gum acacia 97 % of control | endpoint: mean survival time, dose: 400.0 mg/kg/injection, schedule: Q04DX002 (ip), vehicle: gum acacia 101 % of control

CNS(=O)(=O)c1ccc(NC(=O)CCl)cc1
inactive: [1] 104 % of control | [2] 104 % of control | [3] 110 % of control | endpoint: mean survival time, dose: 100.0 mg/kg/injection, schedule: Q04DX003 (ip), vehicle: other 101 % of control | endpoint: mean survival time, dose: 200.0 mg/kg/injection, schedule: Q01DX001 (ip), vehicle: other 103 % of control | [4] 119 % of control | endpoint: mean survival time, dose: 200.0 mg/kg/injection, schedule: Q04DX003 (ip), vehicle: other 98 % of control | endpoint: mean survival time, dose: 400.0 mg/kg/injection, schedule: Q01DX001 (ip), vehicle: other 100 % of control

O=C(O)C1CCCN1Cc1cc2ccccc2c2ccccc12 (centres undefined)
inactive: [5] 112 % of control | [6] 96 % of control | [7] 96 % of control | [8] 96 % of control

CCOC(=O)C(N)CCl (centres undefined)
inactive: endpoint: mean survival time, dose: 6.25 mg/kg/injection, schedule: Q01DX001 (ip), vehicle: saline 100 % of control | endpoint: mean survival time, dose: 12.5 mg/kg/injection, schedule: Q01DX001 (ip), vehicle: saline 101 % of control | endpoint: mean survival time, dose: 25.0 mg/kg/injection, schedule: Q01DX001 (ip), vehicle: saline 101 % of control | [5] 99 % of control | [6] 97 % of control | [7] 95 % of control

CCc1c(CBr)c(=O)[nH]c2ccccc12
inactive: [2] 96 % of control

COCCOCCOc1ccc(Cl)cc1
inactive: endpoint: mean survival time, dose: 100.0 mg/kg/injection, schedule: Q04DX002 (ip), vehicle: saline 92 % of control | endpoint: mean survival time, dose: 200.0 mg/kg/injection, schedule: Q04DX002 (ip), vehicle: saline 107 % of control | endpoint: mean survival time, dose: 400.0 mg/kg/injection, schedule: Q04DX002 (ip), vehicle: saline 88 % of control

CN(C)c1nn[nH]n1
inactive: endpoint: mean survival time, dose: 100.0 mg/kg/injection, schedule: Q04DX003 (ip), vehicle: Klucel (hydroxypropylcellulose) (HPC) 95 % of control | endpoint: mean survival time, dose: 200.0 mg/kg/injection, schedule: Q04DX003 (ip), vehicle: Klucel (hydroxypropylcellulose) (HPC) 88 % of control | endpoint: mean survival time, dose: 400.0 mg/kg/injection, schedule: Q04DX003 (ip), vehicle: Klucel (hydroxypropylcellulose) (HPC) 95 % of control

O=C1NCCN1c1cccc([N+](=O)[O-])c1
inactive: [9] 108 % of control | [1] 103 % of control | endpoint: mean survival time, dose: 100.0 mg/kg/injection, schedule: Q01DX001 (ip), vehicle: Klucel (hydroxypropylcellulose) (HPC) 96 % of control | [3] 98 % of control

CC(CC(C)(C)C)OS(=O)(=O)c1ccc(Br)cc1 (centres undefined)
inactive: [10] 98 % of control | [11] 101 % of control | [12] 92 % of control

CCSC(=O)Nc1cccc(OC(=O)NC)c1
inactive: endpoint: mean survival time, dose: 100.0 mg/kg/injection, schedule: Q01DX001 (ip), vehicle: saline with Tween-80 100 % of control | endpoint: mean survival time, dose: 200.0 mg/kg/injection, schedule: Q01DX001 (ip), vehicle: saline with Tween-80 97 % of control | endpoint: mean survival time, dose: 400.0 mg/kg/injection, schedule: Q01DX001 (ip), vehicle: saline with Tween-80 97 % of control

ICCC(c1ccccc1)(c1ccccc1)c1ccccc1
inactive: [5] 108 % of control | [6] 96 % of control | [7] 96 % of control | [8] 96 % of control

O=C1c2ccccc2-c2cc(Br)c([N+](=O)[O-])c(Br)c21
inactive: [13] 96 % of control | [14] 101 % of control | [15] 102 % of control

NC(=S)N/N=C/c1cc2c(cc1[N+](=O)[O-])OCO2
inactive: [16] 98 % of control | [13] 101 % of control | [14] 93 % of control

CCCC(C)C(O)C(C)C (centres undefined)
inactive: [16] 93 % of control | [13] 95 % of control | [14] 95 % of control | [15] 93 % of control

O=C(CNC(=O)Nc1ccc(Cl)c(Cl)c1)N/N=C/C=C/c1ccccc1
inactive: [1] 96 % of control | [3] 96 % of control | [4] 93 % of control

CCCCCCCCCC(=O)CCCC
inactive: [3] 122 % of control | endpoint: mean survival time, dose: 100.0 mg/kg/injection, schedule: Q04DX003 (ip), vehicle: saline 94 % of control | [4] 96 % of control | endpoint: mean survival time, dose: 200.0 mg/kg/injection, schedule: Q04DX003 (ip), vehicle: saline 98 % of control | endpoint: mean survival time, dose: 400.0 mg/kg/injection, schedule: Q01DX009 (ip), vehicle: saline with Tween-80 104 % of control | endpoint: mean survival time, dose: 400.0 mg/kg/injection, schedule: Q04DX003 (ip), vehicle: saline 94 % of control

O=C(CC(=O)C(F)(F)F)c1csc2ccccc12
inactive: endpoint: mean survival time, dose: 15.0 mg/kg/injection, schedule: Q01DX015 (ip), vehicle: other 108 % of control | [17] 92 % of control | endpoint: mean survival time, dose: 25.0 mg/kg/injection, schedule: Q04DX003 (ip), vehicle: acetone 97 % of control | endpoint: mean survival time, dose: 30.0 mg/kg/injection, schedule: Q01DX015 (ip), vehicle: other 94 % of control | [18] 92 % of control | endpoint: mean survival time, dose: 50.0 mg/kg/injection, schedule: Q04DX003 (ip), vehicle: acetone 100 % of control | endpoint: mean survival time, dose: 60.0 mg/kg/injection, schedule: Q01DX015 (ip), vehicle: other 97 % of control | [6] 95 % of control | endpoint: mean survival time, dose: 100.0 mg/kg/injection, schedule: Q04DX003 (ip), vehicle: acetone 97 % of control | endpoint: mean survival time, dose: 120.0 mg/kg/injection, schedule: Q01DX015 (ip), vehicle: other 94 % of control

O=C1NC(=O)C2CC=CCC12 (centres undefined)
inactive: [10] 101 % of control | [11] 106 % of control | [12] 106 % of control

CCN(CC)Cc1cc(Nc2cc(C)nc(Nc3ccc(Cl)c(Cl)c3)n2)ccc1OC
inactive: endpoint: mean survival time, dose: 12.5 mg/kg/injection, schedule: Q01DX009 (ip), vehicle: saline with Tween-80 98 % of control | endpoint: mean survival time, dose: 12.5 mg/kg/injection, schedule: Q04DX003 (ip), vehicle: saline with Tween-80 98 % of control | [9] 105 % of control | endpoint: mean survival time, dose: 25.0 mg/kg/injection, schedule: Q04DX003 (ip), vehicle: saline with Tween-80 100 % of control | [1] 110 % of control | endpoint: mean survival time, dose: 50.0 mg/kg/injection, schedule: Q04DX003 (ip), vehicle: saline with Tween-80 101 % of control

C[C@H]1C(=O)O[C@@H]2CCN3CC=C(COC(=O)[C@](C)(O)[C@@]1(C)O)[C@H]23
inactive: endpoint: mean survival time, dose: 3.13 mg/kg/injection, schedule: Q01DX010 (ip), vehicle: saline 93 % of control and 94 % of control | endpoint: mean survival time, dose: 6.25 mg/kg/injection, schedule: Q01DX009 (ip), vehicle: saline 95 % of control and 104 % of control | endpoint: mean survival time, dose: 6.25 mg/kg/injection, schedule: Q01DX010 (ip), vehicle: saline 96 % of control and 87 % of control | endpoint: mean survival time, dose: 12.5 mg/kg/injection, schedule: Q01DX009 (ip), vehicle: saline 92 % of control and 104 % of control | endpoint: mean survival time, dose: 12.5 mg/kg/injection, schedule: Q01DX010 (ip), vehicle: saline 92 % of control and 93 % of control | endpoint: mean survival time, dose: 17.6 mg/kg/injection, schedule: Q01DX Z (ip), vehicle: methylcellulose (MC) 98 % of control | [17] 103 % of control and 104 % of control | endpoint: mean survival time, dose: 25.0 mg/kg/injection, schedule: Q01DX010 (ip), vehicle: saline 92 % of control and 94 % of control | endpoint: mean survival time, dose: 26.8 mg/kg/injection, schedule: Q01DX Z (ip), vehicle: methylcellulose (MC) 101 % of control | endpoint: mean survival time, dose: 40.0 mg/kg/injection, schedule: Q01DX Z (ip), vehicle: methylcellulose (MC) 101 % of control | [18] 105 % of control and 121 % of control | endpoint: mean survival time, dose: 60.0 mg/kg/injection, schedule: Q01DX Z (ip), vehicle: methylcellulose (MC) 95 % of control | endpoint: mean survival time, dose: 90.0 mg/kg/injection, schedule: Q01DX Z (ip), vehicle: methylcellulose (MC) 106 % of control | endpoint: mean survival time, dose: 135.0 mg/kg/injection, schedule: Q01DX Z (ip), vehicle: methylcellulose (MC) 111 % of control and 113 % of control | endpoint: mean survival time, dose: 193.0 mg/kg/injection, schedule: Q01DX Z (ip), vehicle: methylcellulose (MC) 108 % of control | endpoint: median survival time, dose: 6.25 mg/kg/injection, schedule: Q01DX009 (ip), vehicle: saline 95 % of control and 100 % of control | endpoint: median survival time, dose: 12.5 mg/kg/injection, schedule: Q01DX009 (ip), vehicle: saline 100 % of control | endpoint: median survival time, dose: 25.0 mg/kg/injection, schedule: Q01DX009 (ip), vehicle: saline 100 % of control | endpoint: median survival time, dose: 50.0 mg/kg/injection, schedule: Q01DX009 (ip), vehicle: saline 100 % of control and 110 % of control
